Laboratory results reported in ChEMBL document CHEMBL1201862, “PubChem BioAssay data set” (2004).
The source made the active and inactive calls.

How the values were obtained:
BJ [1] = assay: cytotoxicity toward BJ-TERT fibroblasts, dose response, cell-based, RAS-independent, luminescence (AID 1933); assay type: functional, Homo sapiens; details: Homo sapiens, BJ
[2] = cytotoxicity toward DRD oncogenic fibroblasts, dose response, cell-based, non-viral oncogenic, luminescence (AID 1934); assay type: functional; details: Homo sapiens
[3] = target: T1, Corticotropin-releasing factor receptor 2/Corticotropin-releasing factor-binding protein (Homo sapiens, UniProt P24387+Q13324); assay: Dose Response confirmation of uHTS hits for small molecule antagonists of the CRF-binding protein and CRF-R2 receptor complex.; assay type: functional; details: read-out: IC50_Mean
T1 sequence (Q13324 whole entry): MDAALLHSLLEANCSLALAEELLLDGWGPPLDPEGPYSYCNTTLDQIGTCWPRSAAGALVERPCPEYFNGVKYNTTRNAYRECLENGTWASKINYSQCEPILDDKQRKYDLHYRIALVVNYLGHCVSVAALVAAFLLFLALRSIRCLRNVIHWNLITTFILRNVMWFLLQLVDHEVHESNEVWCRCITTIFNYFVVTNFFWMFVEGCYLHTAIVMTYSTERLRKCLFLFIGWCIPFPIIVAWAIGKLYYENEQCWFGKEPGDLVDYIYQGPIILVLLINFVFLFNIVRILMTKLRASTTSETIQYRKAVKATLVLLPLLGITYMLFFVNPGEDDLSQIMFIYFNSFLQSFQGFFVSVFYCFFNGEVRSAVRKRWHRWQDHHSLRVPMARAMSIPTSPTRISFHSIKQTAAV
T1 sequence (P24387 whole entry): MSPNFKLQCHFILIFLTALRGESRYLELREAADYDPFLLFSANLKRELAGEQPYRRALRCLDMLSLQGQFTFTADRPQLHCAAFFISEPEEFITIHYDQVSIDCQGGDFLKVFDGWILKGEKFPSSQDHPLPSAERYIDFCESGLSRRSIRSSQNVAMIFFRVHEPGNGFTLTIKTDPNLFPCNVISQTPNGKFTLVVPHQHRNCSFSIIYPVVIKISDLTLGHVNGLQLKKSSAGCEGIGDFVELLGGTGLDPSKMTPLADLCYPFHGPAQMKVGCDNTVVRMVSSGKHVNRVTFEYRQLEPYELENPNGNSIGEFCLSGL

BJ [4] = assay: cytotoxicity toward BJ-TERT-LT-ST fibroblasts, dose response, cell-based, RAS-independent, luminescence (AID 1935); assay type: functional, Homo sapiens; details: Homo sapiens, BJ;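 further: BJ fibroblasts immortalized with TERT plus LT and ST oncogenes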
BJ [5] = assay: cells; assay type: functional, cell-based, Homo sapiens; details: Homo sapiens, BJ
[6] = CRF-BP/CRF-R2 complex antagonists, dose response, cell-based, uHTS hits, 384-well (AID 651639); assay type: functional, Homo sapiens; details: read-out: IC50_Mean
[7] = target: T1, Corticotropin-releasing factor receptor 2/Corticotropin-releasing factor-binding protein; assay: activators of CRF receptor 2 with binding protein – uHTS hits, confirmation (AID 602473); assay type: functional; details: read-out: EC50_Mean
[8] = target: T2, Sentrin-specific protease 8 (Homo sapiens, UniProt Q96LD8); assay type: functional;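 further: luminescence read-out of SENP8 inhibition, dose-response confirmation following an ultra-high-throughput screen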
T2 sequence (Q96LD8 whole entry): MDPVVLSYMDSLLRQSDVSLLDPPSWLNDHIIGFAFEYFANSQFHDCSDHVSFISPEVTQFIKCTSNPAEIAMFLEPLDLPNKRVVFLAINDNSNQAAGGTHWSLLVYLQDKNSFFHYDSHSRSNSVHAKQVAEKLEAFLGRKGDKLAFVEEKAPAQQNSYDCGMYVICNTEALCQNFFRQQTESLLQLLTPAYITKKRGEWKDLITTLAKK

Caspase-3 = target: T3, Caspase-3 (Homo sapiens, UniProt P42574); assay type: functional;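 further: Dose-response selectivity test against caspase-3 for candidate inhibitors of sentrin-specific proteases (SENPs)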
T3 sequence (P42574 whole entry): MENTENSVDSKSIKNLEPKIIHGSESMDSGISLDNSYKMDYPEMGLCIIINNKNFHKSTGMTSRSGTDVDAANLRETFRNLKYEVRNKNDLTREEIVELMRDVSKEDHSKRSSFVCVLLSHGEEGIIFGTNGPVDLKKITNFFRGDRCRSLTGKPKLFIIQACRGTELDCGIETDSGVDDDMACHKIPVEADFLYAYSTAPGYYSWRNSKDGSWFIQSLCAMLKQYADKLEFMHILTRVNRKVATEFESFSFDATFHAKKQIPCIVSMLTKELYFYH

[9] = target: T4, Sentrin-specific protease 6 (Homo sapiens, UniProt Q9GZR1); assay type: functional;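 further: Luminescence-based dose-response confirmatory assay of SENP6 inhibition, following up an ultra-high-throughput screen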
T4 sequence (Q9GZR1 whole entry): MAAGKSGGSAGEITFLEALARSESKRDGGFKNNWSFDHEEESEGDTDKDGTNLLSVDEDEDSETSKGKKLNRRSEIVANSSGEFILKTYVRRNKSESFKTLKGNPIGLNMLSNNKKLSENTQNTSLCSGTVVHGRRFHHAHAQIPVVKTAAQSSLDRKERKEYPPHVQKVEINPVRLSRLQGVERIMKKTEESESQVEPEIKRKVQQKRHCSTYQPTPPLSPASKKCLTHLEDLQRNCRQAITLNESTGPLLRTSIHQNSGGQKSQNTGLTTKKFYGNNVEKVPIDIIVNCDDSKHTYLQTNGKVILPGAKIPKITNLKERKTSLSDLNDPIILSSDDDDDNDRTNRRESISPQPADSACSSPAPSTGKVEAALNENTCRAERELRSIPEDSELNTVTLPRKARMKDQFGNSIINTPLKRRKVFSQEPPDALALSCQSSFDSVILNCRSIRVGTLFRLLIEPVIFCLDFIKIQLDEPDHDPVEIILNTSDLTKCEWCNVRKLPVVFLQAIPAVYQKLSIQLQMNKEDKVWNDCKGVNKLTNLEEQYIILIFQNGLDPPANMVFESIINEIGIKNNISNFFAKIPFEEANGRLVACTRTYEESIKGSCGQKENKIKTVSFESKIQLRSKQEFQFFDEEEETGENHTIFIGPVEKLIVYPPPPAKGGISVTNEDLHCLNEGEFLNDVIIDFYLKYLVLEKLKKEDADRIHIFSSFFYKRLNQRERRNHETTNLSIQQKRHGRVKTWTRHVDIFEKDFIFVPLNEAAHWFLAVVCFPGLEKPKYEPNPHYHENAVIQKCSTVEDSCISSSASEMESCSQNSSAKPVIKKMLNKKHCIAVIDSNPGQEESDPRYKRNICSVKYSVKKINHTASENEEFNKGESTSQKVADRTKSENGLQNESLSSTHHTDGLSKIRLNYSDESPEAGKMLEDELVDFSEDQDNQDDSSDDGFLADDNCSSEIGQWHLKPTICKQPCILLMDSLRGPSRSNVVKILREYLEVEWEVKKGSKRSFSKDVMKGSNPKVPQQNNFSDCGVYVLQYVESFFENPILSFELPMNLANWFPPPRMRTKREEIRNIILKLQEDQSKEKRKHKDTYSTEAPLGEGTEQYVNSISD

[10] = target: T5, Sentrin-specific protease 7 (Homo sapiens, UniProt Q9BQF6); assay type: functional;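 further: Luminescence-based dose-response confirmation of ultra-high-throughput screening hits, measuring inhibition of SENP7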
T5 sequence (Q9BQF6 whole entry): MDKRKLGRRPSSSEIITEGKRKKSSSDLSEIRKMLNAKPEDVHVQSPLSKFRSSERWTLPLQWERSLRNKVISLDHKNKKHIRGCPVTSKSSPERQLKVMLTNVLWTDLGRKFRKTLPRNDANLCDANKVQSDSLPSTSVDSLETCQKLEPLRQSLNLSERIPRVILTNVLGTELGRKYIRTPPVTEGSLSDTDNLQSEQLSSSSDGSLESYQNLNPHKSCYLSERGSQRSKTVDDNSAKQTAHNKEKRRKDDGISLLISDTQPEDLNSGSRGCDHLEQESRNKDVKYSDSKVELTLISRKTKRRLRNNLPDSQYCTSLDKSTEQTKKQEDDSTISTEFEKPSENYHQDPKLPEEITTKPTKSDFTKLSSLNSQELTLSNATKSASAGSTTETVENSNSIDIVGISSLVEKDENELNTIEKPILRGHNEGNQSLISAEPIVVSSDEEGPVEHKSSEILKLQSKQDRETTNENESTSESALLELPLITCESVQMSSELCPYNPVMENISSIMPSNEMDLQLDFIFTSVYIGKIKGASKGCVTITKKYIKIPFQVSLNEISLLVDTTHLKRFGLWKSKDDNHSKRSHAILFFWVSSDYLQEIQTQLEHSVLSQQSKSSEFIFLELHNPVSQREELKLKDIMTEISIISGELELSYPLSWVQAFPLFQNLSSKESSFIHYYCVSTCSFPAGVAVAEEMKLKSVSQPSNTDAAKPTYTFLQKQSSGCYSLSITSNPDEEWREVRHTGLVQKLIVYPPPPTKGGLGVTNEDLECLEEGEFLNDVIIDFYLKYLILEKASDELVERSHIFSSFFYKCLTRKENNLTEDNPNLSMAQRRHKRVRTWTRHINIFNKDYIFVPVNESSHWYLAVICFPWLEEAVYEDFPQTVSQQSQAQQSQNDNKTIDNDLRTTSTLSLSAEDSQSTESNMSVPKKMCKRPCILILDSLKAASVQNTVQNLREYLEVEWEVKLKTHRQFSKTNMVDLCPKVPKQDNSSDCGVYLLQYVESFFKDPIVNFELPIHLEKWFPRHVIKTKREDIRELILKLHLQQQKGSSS

[11] = target: T6, Low molecular weight phosphotyrosine protein phosphatase (Homo sapiens, UniProt P24666); assay type: functional; details: read-out: IC50_Mean;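 further: Dose-response confirmation assay measuring inhibition of LMPTP enzyme activity by fluorescence intensity read-out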
T6 sequence (P24666 whole entry): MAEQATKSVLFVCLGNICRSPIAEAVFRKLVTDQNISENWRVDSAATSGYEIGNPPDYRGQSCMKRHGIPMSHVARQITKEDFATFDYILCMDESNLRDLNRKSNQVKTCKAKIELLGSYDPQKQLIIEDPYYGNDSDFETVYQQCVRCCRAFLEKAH

Protein Wnt-3a = Protein Wnt-3a (Mus musculus, UniProt P27467); assay: Wnt3a-driven reporter signaling inhibition, dose response, selectivity assay for Gli-SUFU antagonist project, Wnt-LIGHT cells, luminescence (AID 651570); assay type: functional; details: read-out: IC50_Mean;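 further: Wnt-LIGHT reporter cells stimulated with conditioned medium from Wnt3a-producing cells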
[12] = inhibitors of intracellular T. cruzi replication, confirmation, NIH3T3 host cells, beta-gal luminescence (AID 2044); assay type: functional, cell-based;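 further: intracellular parasites grown in NIH/3T3 mouse fibroblasts as host cells; luminescent beta-galactosidase reporter signal from transgenic T. cruzi replicating inside host cells; inhibitors lower the luminescence signal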
[13] = cytotoxicity toward NIH3T3 fibroblasts, dose response, counter-screen, cell-based, ATP luminescence, mouse fibroblasts (AID 2010); assay type: functional;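 further: cells exposed to compound for about 90 hours before reading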
[14] = target: T7, Polyadenylate-binding protein 1 (Homo sapiens, UniProt P11940); assay: PABP1 MLLE–PAM2 interaction inhibitors, dose response, miRNA deadenylation inhibitor project, biochemical, fluorescence polarization, Cy5-PAM2 peptide, secondary (AID 602260); assay type: functional; details: read-out: IC50_Mean
[15] = target: T7, Polyadenylate-binding protein 1; assay: PABP1 MLLE–PAM2 binding inhibitor potency, dose response, biochemical, fluorescence polarization, FITC-PAM2 peptide (AID 602259); assay type: functional; details: read-out: IC50_Mean
[16] = human group III sPLA2 inhibitors, dose response, biochemical, QFRET, IC50 (AID 743457);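 further: green fluorescence rise as the enzyme cleaves BODIPY PC-A2 in liposomes; potency for inhibition of the enzyme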
Paired box protein Pax-8 = Paired box protein Pax-8 (Homo sapiens, UniProt Q06710); assay: inhibitors of PAX8-driven TPO luciferase reporter, dose response, RMG-I cells, cherry-pick (AID 687027); assay type: functional, cell-based;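 further: luciferase reporter driven by Pax8 target thyroperoxidase promoter measured by SteadyGlo luminescence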
[17] = cytotoxicity in OVCAR8 ovarian cancer cells, dose response, PAX8 project, cell-based, plate reader, dry powder samples (AID 743197); assay type: functional; details: OVCAR-8
[18] = IGROV1 ovarian cancer cell cytotoxicity, dose response, PAX8 inhibitor project, plate reader, dry powder samples (AID 743043); assay type: functional, cell-based; details: IGROV-1
[19] = NIH:OVCAR-3 ovarian cancer cell cytotoxicity, dose response, PAX8 inhibitor project, plate reader, dry powder samples (AID 743044); assay type: functional, cell-based

T7 sequence (P11940 whole entry): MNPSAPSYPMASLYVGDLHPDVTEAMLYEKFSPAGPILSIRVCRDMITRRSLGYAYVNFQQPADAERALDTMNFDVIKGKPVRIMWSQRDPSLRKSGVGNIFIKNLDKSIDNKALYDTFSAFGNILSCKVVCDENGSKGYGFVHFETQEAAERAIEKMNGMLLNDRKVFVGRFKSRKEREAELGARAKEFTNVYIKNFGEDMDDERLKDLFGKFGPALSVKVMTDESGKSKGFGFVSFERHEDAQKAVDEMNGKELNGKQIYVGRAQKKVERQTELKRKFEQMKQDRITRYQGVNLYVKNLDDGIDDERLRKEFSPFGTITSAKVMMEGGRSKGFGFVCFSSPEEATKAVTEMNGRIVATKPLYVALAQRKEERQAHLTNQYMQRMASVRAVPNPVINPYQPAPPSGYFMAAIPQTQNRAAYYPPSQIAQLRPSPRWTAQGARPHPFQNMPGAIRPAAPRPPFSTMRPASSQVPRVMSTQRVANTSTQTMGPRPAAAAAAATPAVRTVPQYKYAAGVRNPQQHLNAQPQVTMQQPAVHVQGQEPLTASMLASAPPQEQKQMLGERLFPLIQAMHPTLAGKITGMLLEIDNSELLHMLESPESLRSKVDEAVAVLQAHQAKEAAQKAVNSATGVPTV
Paired box protein Pax-8, sequence (Q06710 whole entry): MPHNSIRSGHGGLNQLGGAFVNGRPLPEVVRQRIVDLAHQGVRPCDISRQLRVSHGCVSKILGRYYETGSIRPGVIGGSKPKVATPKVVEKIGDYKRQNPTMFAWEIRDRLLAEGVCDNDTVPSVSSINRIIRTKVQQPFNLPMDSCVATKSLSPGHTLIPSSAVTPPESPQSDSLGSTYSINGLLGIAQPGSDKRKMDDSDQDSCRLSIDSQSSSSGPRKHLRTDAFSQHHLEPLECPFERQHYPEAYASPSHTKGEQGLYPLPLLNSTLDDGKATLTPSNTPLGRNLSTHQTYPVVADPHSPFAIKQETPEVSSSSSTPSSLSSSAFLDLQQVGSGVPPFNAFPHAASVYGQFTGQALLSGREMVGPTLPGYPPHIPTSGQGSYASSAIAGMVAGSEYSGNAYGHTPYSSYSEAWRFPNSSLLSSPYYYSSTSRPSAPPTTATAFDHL
Protein Wnt-3a, sequence (P27467 whole entry): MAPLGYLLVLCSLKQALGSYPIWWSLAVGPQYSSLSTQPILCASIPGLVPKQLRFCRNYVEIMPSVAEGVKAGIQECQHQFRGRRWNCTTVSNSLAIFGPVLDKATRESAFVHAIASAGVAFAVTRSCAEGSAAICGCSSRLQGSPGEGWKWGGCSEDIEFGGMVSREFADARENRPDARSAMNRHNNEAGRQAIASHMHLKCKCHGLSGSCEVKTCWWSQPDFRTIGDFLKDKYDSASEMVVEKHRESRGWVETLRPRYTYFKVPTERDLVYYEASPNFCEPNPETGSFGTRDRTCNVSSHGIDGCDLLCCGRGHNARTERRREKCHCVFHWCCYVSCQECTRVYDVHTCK

In the case of `Oc1cc(C(F)(F)F)nc2ccc(OC(F)(F)F)cc12`, the EC50 (BJ [1]) is reported as 38.8 µM (active), the EC50 [2] is reported as 38.4 µM (active) and the IC50 [3] is reported as 4.24 µM (active). For the same compound, the EC50 (BJ [4]) was > 150 µM (not active), the EC50 (BJ [5]) was 41.4 µM (active) and the IC50 [6] was > 20 µM (inactive). The EC50 [7] was 5.39 µM (active).
With `COc1ccc(NC(=O)NC(C)c2ccc3c(c2)OCO3)c(OC)c1` (centres undefined) the IC50 [3] was < 0.368 µM (active), the IC50 [6] was > 20 µM (inactive) and the EC50 [7] was > 53 µM (inactive).
In the case of `CCOC(=O)/C=C(\C)N1N=C(c2ccccc2)CC1c1ccccc1` (centres undefined), the IC50 [8] is reported as 36.1 µM (active), the IC50 (Caspase-3) is reported as 19.8 µM (active) and the IC50 [9] is reported as 19.7 µM (active). The IC50 [10] was 6.48 µM (active).
With `O=C1/C(=C/N(C(=O)c2ccco2)c2ccc(Br)cc2)Sc2ccccc21` the IC50 [8] was 24.7 µM (active), the IC50 (Caspase-3) was 16.2 µM (active) and the IC50 [9] was 19 µM (active). For the same compound, the IC50 [10] was 13.9 µM (active).
For `N=c1c(C(=O)NCc2ccco2)cc2c(=O)n3ccccc3nc2n1Cc1ccc(Cl)cc1`, the IC50 [11] was 41.8 µM (inactive).
In the case of `c1ccc(C[n+]2c(-c3ccccc3)cn3c2SCCC3)cc1`, the IC50 (Protein Wnt-3a) is reported as 7.13 µM (active).
In the case of `CCOc1ccccc1/N=C1\SC(CC(=O)Nc2ccc(OC)cc2OC)C(=O)N1CCC1=CCCCC1` (centres undefined), the IC50 [3] is reported as < 0.368 µM (active), the EC50 [12] is reported as 1.98 µM (active) and the IC50 [6] is reported as > 20 µM (inactive). For the same compound, the EC50 [13] was > 60 µM (not active) and the EC50 [7] was > 53 µM (inactive).
In the case of `C/C(=N\NC(=S)NCCc1ccccc1)c1ccc(O)cc1O`, the IC50 [14] is reported as > 66 µM (inactive), the IC50 [15] is reported as > 66 µM (inactive) and the IC50 [16] is reported as > 122 µM (inactive).
For `C[C@@H]1CN([C@@H](C)CO)C(=O)Cc2cc(NC(=O)Nc3ccc(C(F)(F)F)cc3)ccc2O[C@H]1CN(C)Cc1ccc2c(c1)OCO2`, the AC50 (Paired box protein Pax-8) was 7.85 µM (active), the AC50 [17] was 41.5 µM (active) and the AC50 [18] was 63.7 µM (active). For the same compound, the AC50 [19] was 24 µM (active).
For `O=C1C(=O)N(Cc2ccc(-c3ccc(Cl)nc3)cc2)c2ccc(OC(F)(F)F)cc21`, the IC50 [16] was > 122 µM (inactive).
With `COc1ccc(-n2c(SCC(=O)NN=C(S)Nc3ccccc3)nc3ccccc3c2=O)cc1` the IC50 [16] was > 40.6 µM (inactive).
